Data reported in patent publication US9883999B2, “Method for solubilizing rutin with polyhydroxy alkyl alcohols” (Colgate-Palmolive Company, priority 2013, dated 2018).

Experiments:
[1] = Initial evaluation of solubilizing agents for rutin by relative clarity of the solutions; assay type: physicochemical; conditions: 0.5% rutin added to 10 g of each test solubilizer; propylene glycol best, sorbitol worst
[2] = system: exfoliated human oral mucosal cells; experiment: Protective (anti-oxidation) efficacy of rutin solutions by cell staining method (Janus Green B, H2O2/Fe2+ challenge); assay type: cell-based; conditions: larger ΔE*a,b = stronger protection
Experimental: Rutin is dissolved in water to prepare a range of different levels of rutin solution. The protective efficacy of rutin solutions is measured using a cell staining method. In this method, the morphology of exfoliated human oral mucosal cells contacted with various concentrations of rutin is disclosed with Janus Green B dye. Photographic digital images are obtained using a light microscope with a 40× or 100× objective lenses connected to a digital camera. The color difference between the cell plasma and the area outside the cell, ΔE*a,b, is determined using the CIE L*a*b* system. The larger the ΔE*a,b value, the stronger the protective efficacy. The method includes the following steps: • 1. Human mucosal cells are collected and mixed with 1 mL Ringer solution, 0.5 mL Fe^2+ and 0.5 mL HAc—Ac buffer in a 5 mL Eppendorf tube. • 2. The cell suspension is then equally divided into two tubes. To the first tube is added 0.2 mL of 20 mM H2O2. To the second tube is added 0.2 mL Ringer solution. • 3. After 10 min, one drop of the above treated samples is placed on a microscope slide and stained with one drop of 0.1% Janus Green B for 1 h or longer. • 4. After staining, the cells are observed under the light microscope. Digital images are also acquired and ΔE*a, b is measured.

C[C@@H]1O[C@@H](OC[C@H]2O[C@@H](Oc3c(-c4ccc(O)c(O)c4)oc4cc(O)cc(O)c4c3=O)[C@H](O)[C@@H](O)[C@@H]2O)[C@H](O)[C@H](O)[C@H]1O [rutin, 2-(3,4-dihydroxyphenyl)-5,7-dihydroxy-3-[α-L-rhamnopyranosyl-(1→6)-β-D-glucopyranosyloxy]-4H-chromen-4-one]
solubility capability of the humectants, ranked [1]: propylene glycol>>glycerin>PEG600≈PEG-40 hydrogenated castor oil>sorbitol | Protective efficacy (ΔE*a, b) ([2]; rutin concentration 0.5 mM in water): 5.5 | Protective efficacy (ΔE*a, b) ([2]; rutin concentration 1.0 mM in water): 24.7 | Protective efficacy (ΔE*a, b) ([2]; rutin concentration 2.0 mM in water): 38.9
